According to PubChem BioAssay (NCI):
Several values for one entry are separate records, joined by “and”; a condition that tells them apart may be missing. Identical values can stand only once.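 These data come from cells grown in 96-well plates and exposed to compound for 48 hours at five concentrations. GI50: concentration for 50% inhibition of growth. The concentration for full growth arrest is given as TGI.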

How the values were obtained:
Experiment in all cases: NCI anticancer screen, dose series, 48 h
HCC-2998 colon = tested on: HCC-2998 colon
SR leukemia = tested on: SR leukemia
KM12 colon = tested on: KM12 colon
LOX IMVI melanoma = tested on: LOX IMVI melanoma
MDA-MB-435 = tested on: MDA-MB-435
UACC-257 melanoma = tested on: UACC-257 melanoma
SNB-75 CNS = tested on: SNB-75 CNS
K-562 leukemia = tested on: K-562 leukemia
MALME-3M melanoma = tested on: MALME-3M melanoma
SF-295 CNS = tested on: SF-295 CNS

| Structure (SMILES) | GI50 (HCC-2998 colon) | TGI (HCC-2998 colon) [µM] | GI50 (SR leukemia) | TGI (SR leukemia) | GI50 (KM12 colon) | TGI (KM12 colon) [µM] | GI50 (LOX IMVI melanoma) | TGI (LOX IMVI melanoma) | GI50 (MDA-MB-435) | TGI (MDA-MB-435) [µM] | GI50 (UACC-257 melanoma) | TGI (UACC-257 melanoma) | GI50 (SNB-75 CNS) | TGI (SNB-75 CNS) | GI50 (K-562 leukemia) | TGI (K-562 leukemia) [µM] | GI50 (MALME-3M melanoma) | TGI (MALME-3M melanoma) | GI50 (SF-295 CNS) | TGI (SF-295 CNS) [µM] |
| --- | --- | --- | --- | --- | --- | --- | --- | --- | --- | --- | --- | --- | --- | --- | --- | --- | --- | --- | --- | --- |
| O=C(/C=C/c1ccco1)c1ccc(Nc2nc(Nc3ccc(F)cc3)nc(Nc3ccc(F)cc3)n2)cc1 | 36 µM | > 100 | 2370 nM | 5.84 µM | 13300 nM | > 100 | 17.6 µM | 45.3 µM | 16.6 µM | 74.4 | > 100 µM | > 100 µM | 30700 nM | 91.7 µM | 10.8 µM | 46 | 43.7 µM | > 100 µM | 23.8 µM | 48.9 |
| COc1cc(-c2cc(=O)c3c(O)c(OC)c(OC)c(OC)c3o2)cc(OC)c1OC |  | > 100 |  | > 100 µM |  | > 100 |  | > 100 µM |  | > 100 |  | > 100 µM |  | 6.2 µM |  | > 100 |  | > 100 µM |  | > 100 |
| Cn1cc(-c2nc(N[C@@H]3CCCC[C@@H]3N)c(F)c3c2C(=O)NC3)cn1 | 26.6 µM and 28.2 µM | > 100 | 2260 nM and 2920 nM | 31.9 µM and 36 µM | 458 nM and 452 nM | > 100 | 2.95 µM and 3.81 µM | 14.1 µM and 16.2 µM | 5.64 µM and 7.4 µM | > 100 | 19.4 µM and 23.9 µM | 98.6 µM and > 88.5 µM | 2140 nM and 2870 nM | 11.7 µM and 16.5 µM | 6.83 µM and 6.77 µM | > 100 | 11 µM and 9.57 µM | 35.2 µM and 50.5 µM | 3.95 µM and 3.5 µM | > 77.2 |
| Cc1c(Cl)cccc1NC(=O)c1sc2nc3c(cc2c1N)CCCC3 | > 100 µM | > 100 | 315 nM | > 100 µM | 482 nM | > 100 | 0.576 µM | > 100 µM | 0.226 µM | 0.775 | 0.688 µM | > 100 µM | 282 nM | > 66.1 µM | 0.391 µM | > 100 | 0.571 µM | > 100 µM | 0.346 µM | > 100 |
| COc1cccc(NC2=C(Cl)C(=O)N(Cc3ccc(Cl)cc3)C2=O)c1 | 2.64 µM | 12.7 | 261 nM |  | 2340 nM | 30.5 | 1.45 µM | > 35.3 µM | 0.234 µM | 1.61 | 3.12 µM | 30.3 µM | 3220 nM | > 100 µM | 0.801 µM | > 46.3 | 1.17 µM | 14.1 µM | 2.35 µM | 12.8 |
| COC(=O)/C(=N\Nc1nnc(C)n1N)C(C#N)c1ccccc1 (centres undefined) |  | > 100 |  | > 100 µM |  | > 100 |  | > 100 µM |  | 32.5 |  | > 100 µM |  | > 100 µM |  | > 100 |  | 46.5 µM |  | > 100 |
| COc1cc(/C=N/NC(=O)c2ccccc2Nc2cccc(C(F)(F)F)c2)cc(OC)c1OC | 5.29 µM | 15.6 | 1300 nM | 4.16 µM | 1290 nM | 4.17 | 4.55 µM | 15.4 µM | 0.476 µM | 1.67 | 4.36 µM | 15.4 µM | 1540 nM | 10.4 µM | 2.52 µM | > 37.2 | 1.75 µM | 8.45 µM | 0.471 µM | 3.04 |
| N#C/C(=C\c1ccc2[nH]ccc2c1)C(=O)c1ccc(O)c(O)c1 |  | > 100 |  | > 100 µM |  | > 100 |  | > 100 µM |  | > 100 |  | > 100 µM |  | > 100 µM |  | > 100 |  | > 100 µM |  | > 100 |
| CNC(c1ccncc1)C(NC)c1ccncc1 (centres undefined) |  | > 100 |  | > 100 µM |  | > 100 |  | > 100 µM |  | > 100 |  | > 100 µM |  | > 100 µM |  | > 100 |  | > 100 µM |  | > 100 |
| Cc1ccc(S(=O)(=O)NC(CO)C(=O)O)cc1 (centres undefined) |  | > 100 |  | > 100 µM |  | > 100 |  | > 100 µM |  | > 100 |  | > 100 µM |  | > 100 µM |  | > 100 |  | > 100 µM |  | > 100 |
| Cn1cc(C2=C(c3cn(CCCCC(=N)N)c4ccccc34)C(=O)NC2=O)c2ccccc21 | > 25 µM | > 25 | 11100 nM | > 25 µM | 20300 nM | > 25 | > 25 µM | > 25 µM | 10.5 µM | > 25 | > 25 µM | > 25 µM | 1650 nM | > 25 µM | 13.5 µM | > 25 | > 25 µM | > 25 µM | > 13.7 µM | > 25 |
| O=C1/C(=C\c2ccccc2)C2OCC=C3CN4CCC56c7ccccc7N1C5C2C3CC46 (centres undefined) | 4.93 µM | > 100 | 2650 nM | 8.76 µM | 34400 nM | > 100 | 4.9 µM | 49.8 µM | 3.59 µM | > 100 | 2.16 µM | 4.11 µM | 14700 nM | > 100 µM | 3.33 µM | > 100 | 4.67 µM | 17.9 µM | 3.69 µM | 24.7 |
| NC(=O)c1ccc(N(C(N)=O)c2c(F)cccc2F)nc1-c1ccc(F)cc1F | > 100 µM | > 100 | > 100000 nM | > 100 µM | > 100000 nM | > 100 | > 100 µM | > 100 µM | > 100 µM | > 100 | > 100 µM | > 100 µM | > 100000 nM | > 100 µM | > 100 µM | > 100 | > 100 µM | > 100 µM | > 100 µM | > 100 |
